Source: patent EP0520722B1, “Therapeutic preparations containing quinazoline derivatives” (ZENECA LIMITED, priority 1991, dated 1992)
Structures can show the parent of a compound that is named as a salt.

What was measured:
receptor tyrosine kinase = biological target: T1, receptor tyrosine kinase (Homo sapiens, UniProt P00533); experiment: Test (a): in vitro receptor tyrosine kinase inhibition assay (EGF-stimulated peptide phosphorylation, [γ-32P]ATP); type: biochemical; conditions: enzyme partially purified from A-431 cells (human vulval carcinoma); in presence of EGF; 25°C for 10 minutes
T1 construct: The supernatant, containing solubilised receptor tyrosine kinase, was stored in liquid nitrogen; endogenous in cells; host or cells: A-431 cells (human vulval carcinoma); detergent-solubilised membrane fraction
Experimental: (a) An in vitro assay which determines the ability of a test compound to inhibit the enzyme receptor tyrosine kinase. Receptor tyrosine kinase was obtained in partially purified form from A-431 cells (derived from human vulval carcinoma) by procedures related to those described by Carpenter et al., J. Biol. Chem., 1979, 254, 4884, Cohen et al., J. Biol. Chem., 1982, 257, 1523 and by Braun et al., J. Biol. Chem., 1984, 259, 2051.
A-431 cells were grown to confluence using Dulbecco′s modified Eagle′s medium (DMEM) containing 5% fetal calf serum (FCS). The obtained cells were homogenised in a hypotonic borate/EDTA buffer at pH 10.1. The homogenate was centrifuged at 400 g for 10 minutes at 0-4°C. The supernatant was centrifuged at 25,000 g for 30 minutes at 0-4°C. The pelleted material was suspended in 30 mM Hepes buffer at pH 7.4 containing 5% glycerol, 4 mM benzamidine and 1% Triton X-100, stirred for 1 hour at 0-4°C, and recentrifuged at 100,000 g for 1 hour at 0-4°C. The supernatant, containing solubilised receptor tyrosine kinase, was stored in liquid nitrogen.
For test purposes 40 µl of the enzyme solution so obtained was added to a mixture of 400 µl of a mixture of 150 mM Hepes buffer at pH 7.4, 500 µM sodium orthovanadate, 0.1% Triton X-100, 10% glycerol, 200 µl water, 80 µl of 25 mM DTT and 80µl of a mixture of 12.5 mM manganese chloride, 125 mM magnesium chloride and distilled water. There was thus obtained the test enzyme solution.
Each test compound was dissolved in dimethylsulphoxide (DMSO) to give a 50 mM solution which was diluted with 40 mM Hepes buffer containing 0.1% Triton X-100, 10% glycerol and 10% DMSO to give a 500 µM solution. Equal volumes of this solution and a solution of epidermal growth factor (EGF; 20 µg/ml) were mixed.
[γ-^32P]ATP (3000 Ci/mM, 250 µCi) was diluted to a volume of 2 ml by the addition of a solution of ATP (100 µM) in distilled water. An equal volume of a 4 mg/ml solution of the peptide Arg-Arg-Leu-Ile-Glu-Asp-Ala-Glu-Tyr-Ala-Ala-Arg-Gly in a mixture of 40 mM Hepes buffer at pH 7.4, 0.1% Triton X-100 and 10% glycerol was added.
The test compound/EGF mixture solution (5 µl) was added to the test enzyme solution (10 µl) and the mixture was incubated at 0-4°C for 30 minutes. The ATP/peptide mixture (10 µl) was added and the mixture was incubated at 25°C for 10 minutes. […] Radioactivity present in the filter paper was measured using a liquid scintillation counter (Sequence A). […]
Receptor tyrosine kinase inhibition was calculated as follows:- % Inhibition =[…] [formula]
The extent of inhibition was then determined at a range of concentrations of test compound to give an IC50 value.

[1] = test system: human naso-pharyngeal cell line KB; experiment: Test (b): in vitro inhibition of EGF-stimulated growth of KB cells (MTT); type: cell-based; conditions: 72 h, EGF (10 ng/ml), incubation for 3 days
Experimental: (b) An in vitro assay which determines the ability of a test compound to inhibit the growth of the human naso-pharyngeal cell line KB.
KB cells were seeded into wells at a density of 1 x 10 - 1.5 x 10^4 cells per well and grown for 24 hours in DMEM supplemented with 5% FCS (charcoal-stripped). Cell growth was determined after incubation for 3 days by the extent of metabolism of MTT tetrazolium dye to furnish a bluish colour. Cell growth was then determined in the presence of EGF (10 ng/ml) or in the presence of EGF (10 ng/ml) and a test compound at a range of concentrations. An IC50 value could then be calculated.

T1 sequence (P00533 25-1210): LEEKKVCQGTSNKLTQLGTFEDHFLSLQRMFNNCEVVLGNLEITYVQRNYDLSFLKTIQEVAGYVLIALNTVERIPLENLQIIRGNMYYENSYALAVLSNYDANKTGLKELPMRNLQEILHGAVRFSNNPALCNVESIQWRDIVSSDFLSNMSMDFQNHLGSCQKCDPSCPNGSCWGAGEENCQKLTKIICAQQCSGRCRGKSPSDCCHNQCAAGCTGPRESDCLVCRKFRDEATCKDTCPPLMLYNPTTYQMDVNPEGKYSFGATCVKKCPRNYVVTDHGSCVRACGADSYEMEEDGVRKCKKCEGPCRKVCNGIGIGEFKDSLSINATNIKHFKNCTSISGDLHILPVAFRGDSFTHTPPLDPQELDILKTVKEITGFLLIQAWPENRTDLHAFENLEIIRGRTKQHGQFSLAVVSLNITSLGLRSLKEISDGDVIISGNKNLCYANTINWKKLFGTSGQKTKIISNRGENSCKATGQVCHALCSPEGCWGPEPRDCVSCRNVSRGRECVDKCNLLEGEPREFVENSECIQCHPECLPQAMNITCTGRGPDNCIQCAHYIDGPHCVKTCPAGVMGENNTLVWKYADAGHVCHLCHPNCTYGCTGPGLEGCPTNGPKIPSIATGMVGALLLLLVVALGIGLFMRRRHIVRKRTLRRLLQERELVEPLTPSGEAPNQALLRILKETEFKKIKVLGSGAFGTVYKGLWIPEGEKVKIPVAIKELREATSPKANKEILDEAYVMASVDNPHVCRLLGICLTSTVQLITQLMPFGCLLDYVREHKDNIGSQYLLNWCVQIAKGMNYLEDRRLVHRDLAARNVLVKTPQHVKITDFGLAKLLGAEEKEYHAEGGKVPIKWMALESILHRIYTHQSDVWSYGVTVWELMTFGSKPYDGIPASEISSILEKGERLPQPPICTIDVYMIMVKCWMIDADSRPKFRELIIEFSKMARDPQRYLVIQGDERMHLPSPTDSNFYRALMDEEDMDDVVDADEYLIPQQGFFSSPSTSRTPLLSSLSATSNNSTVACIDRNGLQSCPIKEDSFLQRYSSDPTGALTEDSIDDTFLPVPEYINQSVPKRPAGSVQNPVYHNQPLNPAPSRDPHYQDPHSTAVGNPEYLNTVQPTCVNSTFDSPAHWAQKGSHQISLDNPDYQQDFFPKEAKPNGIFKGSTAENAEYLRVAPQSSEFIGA

IC50 (receptor tyrosine kinase)	IC50 [1]	Structure (SMILES)
180 nM	~5000 nM	Cc1cccc(Nc2ncnc3ccccc23)c1 [4-(3'-methylanilino)-quinazoline]
20 nM	780 nM	Brc1cccc(Nc2ncnc3ccccc23)c1 [4-(3'-bromoanilino)quinazoline, 4-(3'-bromoanilino)quinazoline hydrochloride]
20 nM	1000 nM	Clc1cccc(Nc2ncnc3cc(Cl)ccc23)c1 [7-chloro-4-(3'-chloroanilino)quinazoline]
40 nM	~5000 nM	Clc1cccc(Nc2ncnc3ccccc23)c1 [4-(3'-chloroanilino)quinazoline, 4-(3′-chloroanilino)quinazoline hydrochloride]
